Measured values taken from ChEMBL document CHEMBL1201862, “PubChem BioAssay data set” (2004).
One block for each compound: values may come before it. Calls of active or inactive are those of the source.

What was measured:
NS3 = NS3 (Hepatitis C virus, UniProt A3EZJ3); assay: PubChem AID 2173; set-up: species or system Hepacivirus hominis
Cytochrome P450 3A4 = Cytochrome P450 3A4 (Homo sapiens, UniProt P08684);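 note: CYP3A4 tested as one member of a cytochrome P450 panel screen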
Cytochrome P450 1A2 = target: T1, Cytochrome P450 1A2 (Homo sapiens, UniProt P05177);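 note: PubChem cytochrome P450 panel assay, CYP1A2 panel member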
T1 sequence (P05177 whole entry): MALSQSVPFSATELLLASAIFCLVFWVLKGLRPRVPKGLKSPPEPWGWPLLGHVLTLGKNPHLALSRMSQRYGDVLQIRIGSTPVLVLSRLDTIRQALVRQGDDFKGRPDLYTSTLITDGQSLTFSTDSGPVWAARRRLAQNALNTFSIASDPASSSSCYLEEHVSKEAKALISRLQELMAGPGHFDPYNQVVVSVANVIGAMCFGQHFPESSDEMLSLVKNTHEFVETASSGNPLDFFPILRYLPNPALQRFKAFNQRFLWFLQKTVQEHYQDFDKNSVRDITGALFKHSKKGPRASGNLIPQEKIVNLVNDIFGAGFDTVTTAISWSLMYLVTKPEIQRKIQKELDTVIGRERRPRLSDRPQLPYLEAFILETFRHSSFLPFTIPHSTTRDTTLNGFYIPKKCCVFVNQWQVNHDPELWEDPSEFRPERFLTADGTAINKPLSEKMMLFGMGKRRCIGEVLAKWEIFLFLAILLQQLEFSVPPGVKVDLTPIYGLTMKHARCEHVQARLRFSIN

[1] = target: Serine/threonine-protein phosphatase (Homo sapiens, UniProt Q9BPW0); assay: Counterscreen for inhibitors of PP1: fluorescence-based biochemical high throughput dose response assay to identify inhibitors of Protein Phosphatase 5 (PP5). [Related pubchem assays: 2034 (Summary (PP5 inhibitors)), 1987 (PP5 inhibitors in singlate), 2235 (PP1 inhibitors in singlate)]
Serine/threonine-protein phosphatase, sequence (Q9BPW0 whole entry): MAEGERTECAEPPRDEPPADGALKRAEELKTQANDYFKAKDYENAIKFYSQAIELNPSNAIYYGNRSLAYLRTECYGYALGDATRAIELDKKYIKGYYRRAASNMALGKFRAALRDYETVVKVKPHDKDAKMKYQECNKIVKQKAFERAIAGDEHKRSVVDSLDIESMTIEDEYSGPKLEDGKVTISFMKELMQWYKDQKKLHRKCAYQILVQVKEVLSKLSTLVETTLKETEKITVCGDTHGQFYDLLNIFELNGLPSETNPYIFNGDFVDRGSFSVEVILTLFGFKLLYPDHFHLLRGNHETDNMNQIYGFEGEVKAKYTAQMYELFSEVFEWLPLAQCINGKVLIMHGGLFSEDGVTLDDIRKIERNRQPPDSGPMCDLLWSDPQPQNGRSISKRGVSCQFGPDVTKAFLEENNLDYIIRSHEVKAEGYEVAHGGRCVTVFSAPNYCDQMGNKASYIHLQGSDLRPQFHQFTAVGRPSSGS

[2] = target: Serine/threonine-protein phosphatase PP1-alpha catalytic subunit (Homo sapiens, UniProt P62136); assay: inhibition of protein phosphatase 1 activity – biochemical, fluorescence, dose response (AID 2403);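 note: phosphatase turnover of OMFP into fluorescent 3-O-methylfluorescein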
Serine/threonine-protein phosphatase PP1-alpha catalytic subunit, sequence (P62136 whole entry): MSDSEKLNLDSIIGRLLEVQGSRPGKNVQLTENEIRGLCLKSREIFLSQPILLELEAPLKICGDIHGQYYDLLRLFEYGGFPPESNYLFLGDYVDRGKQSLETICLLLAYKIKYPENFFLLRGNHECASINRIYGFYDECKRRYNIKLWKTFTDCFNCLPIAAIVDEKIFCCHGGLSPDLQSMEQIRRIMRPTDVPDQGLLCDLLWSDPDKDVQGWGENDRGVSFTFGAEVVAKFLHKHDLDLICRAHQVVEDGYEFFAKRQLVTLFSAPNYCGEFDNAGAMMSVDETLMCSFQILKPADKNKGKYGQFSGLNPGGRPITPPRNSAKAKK

[3] = target: T2, Neuropeptides B/W receptor type 1 (Homo sapiens, UniProt P48145); assay: Fluorescence-based dose response cell-based high throughput screening assay to identify antagonists of the G-protein coupled receptor 7 (GPR7). [Related pubchem assays: 1952 (Screening assay (GPR7 antagonists).), 1880 (Summary AID.)]; type: functional
T2 sequence (P48145 whole entry): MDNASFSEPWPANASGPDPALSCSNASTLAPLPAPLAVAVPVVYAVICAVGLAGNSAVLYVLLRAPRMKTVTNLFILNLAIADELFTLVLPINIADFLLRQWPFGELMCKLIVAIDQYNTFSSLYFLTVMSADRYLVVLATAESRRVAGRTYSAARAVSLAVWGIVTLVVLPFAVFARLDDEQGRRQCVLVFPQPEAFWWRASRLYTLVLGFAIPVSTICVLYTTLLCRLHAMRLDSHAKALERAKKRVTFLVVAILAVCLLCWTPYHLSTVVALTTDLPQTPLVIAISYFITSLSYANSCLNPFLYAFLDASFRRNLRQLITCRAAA

[4] = target: Melanin-concentrating hormone receptor 1 (Homo sapiens, UniProt Q99705); assay: Fluorescence-based counterscreen for antagonists of the G-protein coupled receptor 7 (GPR7): cell-based high throughput dose response assay to identify antagonists of the melanin-concentrating hormone receptor 1 (MCHR1).; type: functional
Melanin-concentrating hormone receptor 1, sequence (Q99705 whole entry): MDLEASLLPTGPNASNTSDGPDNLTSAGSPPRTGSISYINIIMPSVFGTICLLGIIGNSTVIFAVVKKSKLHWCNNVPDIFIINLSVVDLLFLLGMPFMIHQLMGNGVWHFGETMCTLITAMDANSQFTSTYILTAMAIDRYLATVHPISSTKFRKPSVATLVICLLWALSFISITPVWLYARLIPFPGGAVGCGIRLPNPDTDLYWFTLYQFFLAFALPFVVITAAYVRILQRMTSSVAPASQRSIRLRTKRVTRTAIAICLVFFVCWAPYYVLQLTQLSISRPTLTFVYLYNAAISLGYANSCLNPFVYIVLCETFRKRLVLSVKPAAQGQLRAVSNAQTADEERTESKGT

[5] = target: T3, Eukaryotic translation initiation factor 2-alpha kinase 3 (Homo sapiens, UniProt Q9NZJ5); assay: Counterscreen assay for PERK inhibitors: Dose response cell-based high throughput screening assay to measure inhibition of PERK at 6 hours. [Related pubchem assays: 1522, 1416 ]; type: functional
T3 sequence (Q9NZJ5 whole entry): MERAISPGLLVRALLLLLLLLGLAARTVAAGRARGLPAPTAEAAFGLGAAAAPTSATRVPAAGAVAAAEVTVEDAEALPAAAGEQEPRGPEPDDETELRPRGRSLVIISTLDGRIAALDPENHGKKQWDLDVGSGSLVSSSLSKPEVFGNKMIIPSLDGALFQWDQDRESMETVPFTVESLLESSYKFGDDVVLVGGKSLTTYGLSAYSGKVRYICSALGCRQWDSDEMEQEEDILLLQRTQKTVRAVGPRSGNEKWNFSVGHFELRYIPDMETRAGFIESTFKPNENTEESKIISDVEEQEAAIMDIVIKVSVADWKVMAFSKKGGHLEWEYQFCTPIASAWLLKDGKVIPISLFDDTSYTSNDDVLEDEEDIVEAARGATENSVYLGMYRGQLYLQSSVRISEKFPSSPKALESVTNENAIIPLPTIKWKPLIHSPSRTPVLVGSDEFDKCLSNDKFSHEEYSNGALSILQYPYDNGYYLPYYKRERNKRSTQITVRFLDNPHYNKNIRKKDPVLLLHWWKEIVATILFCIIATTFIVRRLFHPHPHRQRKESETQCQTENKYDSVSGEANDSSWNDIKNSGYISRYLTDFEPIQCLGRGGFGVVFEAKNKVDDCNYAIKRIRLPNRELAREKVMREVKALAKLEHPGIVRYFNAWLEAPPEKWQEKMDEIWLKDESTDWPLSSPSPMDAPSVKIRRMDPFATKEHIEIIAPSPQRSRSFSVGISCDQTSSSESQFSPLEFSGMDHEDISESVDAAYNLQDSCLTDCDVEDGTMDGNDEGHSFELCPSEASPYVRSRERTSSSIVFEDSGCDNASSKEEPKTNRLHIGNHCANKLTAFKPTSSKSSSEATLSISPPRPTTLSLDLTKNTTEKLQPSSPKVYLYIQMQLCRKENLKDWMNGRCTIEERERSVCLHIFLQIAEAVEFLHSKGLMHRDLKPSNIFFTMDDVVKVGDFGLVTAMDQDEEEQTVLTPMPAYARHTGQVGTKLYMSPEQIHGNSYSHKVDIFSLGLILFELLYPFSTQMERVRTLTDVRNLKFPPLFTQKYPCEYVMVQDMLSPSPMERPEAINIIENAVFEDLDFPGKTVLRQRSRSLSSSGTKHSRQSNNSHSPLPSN

[6] = target: T3, Eukaryotic translation initiation factor 2-alpha kinase 3; assay: Dose response cell-based high-throughput screening assay to measure PERK inhibition. [Related pubchem assays: 1416 ]; type: functional
[7] = target: T4, Alkaline phosphatase, tissue-nonspecific isozyme (Homo sapiens, UniProt P05186)
T4 sequence (P05186 whole entry): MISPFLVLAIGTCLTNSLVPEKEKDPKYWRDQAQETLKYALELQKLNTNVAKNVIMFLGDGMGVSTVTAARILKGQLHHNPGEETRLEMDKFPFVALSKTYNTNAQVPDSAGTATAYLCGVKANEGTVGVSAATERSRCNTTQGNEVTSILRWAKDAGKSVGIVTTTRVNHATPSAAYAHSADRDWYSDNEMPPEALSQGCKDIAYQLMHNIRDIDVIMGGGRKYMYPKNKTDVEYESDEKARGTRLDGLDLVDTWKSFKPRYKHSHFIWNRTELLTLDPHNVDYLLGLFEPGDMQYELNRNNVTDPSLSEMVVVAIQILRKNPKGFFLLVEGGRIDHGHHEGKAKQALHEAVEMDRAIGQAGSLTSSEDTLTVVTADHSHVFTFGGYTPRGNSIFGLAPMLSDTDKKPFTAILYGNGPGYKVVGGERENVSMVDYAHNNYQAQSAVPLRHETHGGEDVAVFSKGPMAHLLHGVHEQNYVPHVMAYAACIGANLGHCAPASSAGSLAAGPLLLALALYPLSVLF

[8] = target: T5, Probable nicotinate-nucleotide adenylyltransferase (Staphylococcus aureus (strain N315), UniProt P65502); type: functional, Staphylococcus aureus subsp. aureus N315; conditions: read-out: IC50_Mean;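 for IC50 Mean: confirmatory dose-response retesting of NadD inhibitor hits first found in an ultra-high-throughput screen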
[9] = target: T5, Probable nicotinate-nucleotide adenylyltransferase; type: functional, Staphylococcus aureus subsp. aureus N315
[10] = target: Luciferin 4-monooxygenase (Photinus pyralis, UniProt P08659); assay: Counter Screen for Luciferase-based Assay Positives. [Related pubchem assays: 620, 618, 411 ]
Luciferin 4-monooxygenase, sequence (P08659 whole entry): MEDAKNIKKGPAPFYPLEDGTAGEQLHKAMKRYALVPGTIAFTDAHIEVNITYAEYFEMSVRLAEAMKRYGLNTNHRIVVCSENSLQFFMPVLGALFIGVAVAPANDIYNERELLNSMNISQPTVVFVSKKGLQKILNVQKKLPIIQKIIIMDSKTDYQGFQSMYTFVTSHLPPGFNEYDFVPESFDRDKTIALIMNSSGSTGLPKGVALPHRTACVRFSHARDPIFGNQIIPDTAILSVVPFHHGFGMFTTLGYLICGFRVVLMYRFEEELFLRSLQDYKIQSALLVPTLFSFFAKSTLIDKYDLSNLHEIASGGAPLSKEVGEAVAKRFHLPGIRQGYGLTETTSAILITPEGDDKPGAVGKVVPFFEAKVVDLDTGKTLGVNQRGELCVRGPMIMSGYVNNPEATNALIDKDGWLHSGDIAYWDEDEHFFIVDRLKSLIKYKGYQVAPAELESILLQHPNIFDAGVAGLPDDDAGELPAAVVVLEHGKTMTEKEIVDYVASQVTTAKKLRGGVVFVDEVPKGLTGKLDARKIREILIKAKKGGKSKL

HT-1080 = assay: HT1080 cell viability loss – fluorescence readout (AID 620); type: functional, cell-based; conditions: Homo sapiens
[11] = target: Mothers against decapentaplegic homolog 3 (Homo sapiens, UniProt P84022); assay: blockers of Smad3 complex formation in lysate – cell lysate, secondary confirmation, chemiluminescent ELISA, HEK293 lysate, dose response (AID 1058); type: functional
Mothers against decapentaplegic homolog 3, sequence (P84022 whole entry): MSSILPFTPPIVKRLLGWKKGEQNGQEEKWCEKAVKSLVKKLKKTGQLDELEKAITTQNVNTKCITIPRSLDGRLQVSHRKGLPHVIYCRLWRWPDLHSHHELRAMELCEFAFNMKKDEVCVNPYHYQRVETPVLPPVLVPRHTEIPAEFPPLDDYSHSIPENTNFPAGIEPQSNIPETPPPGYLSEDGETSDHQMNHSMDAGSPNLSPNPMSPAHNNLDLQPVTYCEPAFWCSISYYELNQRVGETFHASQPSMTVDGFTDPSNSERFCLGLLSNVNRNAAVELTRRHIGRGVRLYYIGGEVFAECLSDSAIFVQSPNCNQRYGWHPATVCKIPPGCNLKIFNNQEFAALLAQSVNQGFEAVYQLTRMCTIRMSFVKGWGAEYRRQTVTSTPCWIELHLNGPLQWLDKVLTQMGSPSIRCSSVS

NS3, sequence (A3EZJ3 whole entry): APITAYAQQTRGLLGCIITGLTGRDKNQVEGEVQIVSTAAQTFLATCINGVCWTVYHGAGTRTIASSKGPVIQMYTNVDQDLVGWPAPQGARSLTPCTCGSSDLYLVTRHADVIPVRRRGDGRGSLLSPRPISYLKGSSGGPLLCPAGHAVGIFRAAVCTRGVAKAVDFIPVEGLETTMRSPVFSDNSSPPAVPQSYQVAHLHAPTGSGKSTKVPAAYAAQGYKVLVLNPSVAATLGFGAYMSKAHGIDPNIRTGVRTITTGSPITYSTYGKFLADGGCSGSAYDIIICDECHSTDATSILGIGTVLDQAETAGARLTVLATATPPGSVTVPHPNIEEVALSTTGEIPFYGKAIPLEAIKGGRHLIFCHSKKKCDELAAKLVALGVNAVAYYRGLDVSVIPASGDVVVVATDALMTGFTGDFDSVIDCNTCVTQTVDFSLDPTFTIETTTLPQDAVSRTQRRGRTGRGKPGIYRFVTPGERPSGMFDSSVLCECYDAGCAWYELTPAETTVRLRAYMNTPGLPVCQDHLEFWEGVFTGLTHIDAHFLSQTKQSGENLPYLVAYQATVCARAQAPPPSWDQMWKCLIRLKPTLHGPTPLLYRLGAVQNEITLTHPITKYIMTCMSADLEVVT
Cytochrome P450 3A4, sequence (P08684 whole entry): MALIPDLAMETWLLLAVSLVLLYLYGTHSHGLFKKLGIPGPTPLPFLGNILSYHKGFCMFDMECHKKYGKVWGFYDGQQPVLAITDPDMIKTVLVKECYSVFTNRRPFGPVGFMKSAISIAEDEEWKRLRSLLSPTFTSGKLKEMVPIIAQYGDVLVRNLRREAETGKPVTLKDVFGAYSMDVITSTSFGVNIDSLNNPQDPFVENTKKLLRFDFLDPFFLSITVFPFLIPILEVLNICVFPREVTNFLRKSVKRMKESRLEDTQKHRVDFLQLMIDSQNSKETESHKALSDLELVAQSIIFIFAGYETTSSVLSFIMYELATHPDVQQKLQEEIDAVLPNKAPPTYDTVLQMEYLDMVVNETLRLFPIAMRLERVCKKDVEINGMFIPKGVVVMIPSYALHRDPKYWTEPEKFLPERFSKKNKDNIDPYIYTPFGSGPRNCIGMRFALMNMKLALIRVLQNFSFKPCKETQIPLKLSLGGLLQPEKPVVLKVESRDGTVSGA

SMILES: O=C(O)c1cc(-c2ccc(Cl)c(Cl)c2)n(-c2ccc(F)cc2)n1
- IC50 [1]: > 67 µM (not active)
- IC50 [2]: 8.13 µM (active)

SMILES: COCc1cc(O)n2nc(-c3ccsc3-n3c(C)ccc3C)cc2n1
- EC50 [7]: > 100 µM (not active)
- IC50 [8]: 51.3 µM (active)
- IC50 [9]: 13.3 µM (active)

SMILES: C=CCNc1ncnc2c1cnn2-c1ccc(OC)cc1
- EC50 [10]: 0.33 µM (active)
- EC50 (HT-1080): > 50 µM (not active)

The remaining lines, values ahead:

- IC50 (NS3): 14.2 µM (not active)
- AC50 (Cytochrome P450 3A4): 20 µM (inconclusive)
- AC50 (Cytochrome P450 1A2): 15.8 µM (inconclusive)
SMILES: Cc1ccc(C)c(N2CCN(C(=O)c3ccc4nc(-c5ccco5)c(-c5ccco5)nc4c3)CC2)c1

- IC50 [3]: > 43.8 µM (not active)
- IC50 [4]: > 43.8 µM (not active)
SMILES: O=C(CSc1nnc(Cc2ccccc2)n1Cc1ccco1)NC1CCCC1

- EC50 [5]: > 55.7 µM (not active)
- EC50 [6]: > 55.7 µM (not active)
SMILES: Cc1ccnc(NS(=O)(=O)c2cc(C(F)(F)F)ccc2Cl)c1

- IC50 [11]: > 50 µM (not active)
SMILES: COC(=O)c1ccccc1C1c2ccc(O)c(O)c2OC2=C(O)C(=O)C=CC21 (stereo not given)
